ChEMBL document CHEMBL1138696, “Evans Blue and other dyes as protein tyrosine phosphatase inhibitors” (Bioorg Med Chem Lett, 2004)

How the values were obtained:
[1] = biological target: T1, Tyrosine-protein phosphatase non-receptor type 1 (Homo sapiens, UniProt P18031); assay: Inhibition of human PTPase 1B
T1 sequence (P18031 whole entry): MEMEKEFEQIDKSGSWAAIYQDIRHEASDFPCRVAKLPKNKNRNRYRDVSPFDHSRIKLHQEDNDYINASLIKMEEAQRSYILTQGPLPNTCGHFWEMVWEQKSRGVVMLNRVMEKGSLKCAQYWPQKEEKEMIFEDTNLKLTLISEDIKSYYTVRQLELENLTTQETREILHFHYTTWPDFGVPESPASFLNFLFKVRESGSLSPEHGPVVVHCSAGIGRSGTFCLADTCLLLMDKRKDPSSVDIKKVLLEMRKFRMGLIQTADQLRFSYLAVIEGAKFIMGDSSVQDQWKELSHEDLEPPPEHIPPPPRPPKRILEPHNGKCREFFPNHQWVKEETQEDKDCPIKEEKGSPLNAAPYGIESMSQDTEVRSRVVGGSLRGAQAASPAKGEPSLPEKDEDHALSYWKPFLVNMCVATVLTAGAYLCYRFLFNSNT

[2] = biological target: T2, Tyrosine-protein phosphatase 1 (Saccharomyces cerevisiae S288c, UniProt P25044); assay: Inhibitory activity against Saccharomyces cerevisiae Tyrosine phosphatase 1
T2 sequence (P25044 whole entry): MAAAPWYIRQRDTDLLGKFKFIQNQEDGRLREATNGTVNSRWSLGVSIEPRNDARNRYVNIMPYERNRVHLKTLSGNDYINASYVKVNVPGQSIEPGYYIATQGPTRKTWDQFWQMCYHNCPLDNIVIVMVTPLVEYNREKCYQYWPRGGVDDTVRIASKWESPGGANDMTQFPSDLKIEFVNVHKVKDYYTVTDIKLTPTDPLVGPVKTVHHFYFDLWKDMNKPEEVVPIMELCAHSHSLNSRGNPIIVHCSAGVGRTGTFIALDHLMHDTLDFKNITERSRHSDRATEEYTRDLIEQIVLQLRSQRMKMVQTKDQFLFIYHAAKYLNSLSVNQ

[3] = Inhibition of human Leukocyte Antigen Related(LAR) protein tyrosine phosphatase D1

Row | Compound | IC50 [1] [µM] | IC50 [2] [µM] | IC50 [3] [µM]
1 | Cc1cc(-c2ccc(/N=N/c3c(S(=O)(=O)O)cc4cc(S(=O)(=O)O)cc(N)c4c3O)c(C)c2)ccc1/N=N/c1c(S(=O)(=O)O)cc2cc(S(=O)(=O)O)cc(N)c2c1O [TRYPAN BLUE] | 3.9 | 7.4 | 170
2 | O=C1c2ccccc2C(=O)c2c1cc(S(=O)(=O)O)c(O)c2O [Alizarin Red S] | 40 | 48 | 82
3 | O=C(O)c1cc(N=Nc2ccc([N+](=O)[O-])cc2)ccc1O | 210 | 630 | > 1000
4 | C/C(=C1/C=CC(=O)C(C(=O)O)=C1)c1ccc(O)c(C(=O)O)c1 | 5.2 | 30 | > 1000
5 | COc1cc(S(=O)(=O)O)c(C)cc1N=Nc1c(O)ccc2cc(S(=O)(=O)O)ccc12 [E129] | 33 | 410 | 90
6 | O=S(=O)(O)c1cc(S(=O)(=O)O)c2c(N=Nc3c(O)cc(S(=O)(=O)O)c4ccccc34)c(O)c(S(=O)(=O)O)cc2c1 [E126] | 460 | 110 | 
7 | Cc1cc(-c2ccc(/N=N/c3ccc4c(S(=O)(=O)O)cc(S(=O)(=O)O)c(N)c4c3O)c(C)c2)ccc1/N=N/c1ccc2c(S(=O)(=O)O)cc(S(=O)(=O)O)c(N)c2c1O [EVANS BLUE] | 1.3 | 1.2 | 61
8 | CC(C)=CC[C@@H](O)C1=CC(=O)c2c(O)ccc(O)c2C1=O [SHIKONIN] | 25 |  | > 1000
9 | Cc1[nH]n(-c2ccccc2)c(=O)c1N=Nc1c(O)cc(S(=O)(=O)O)c2ccccc12 | 150 | 140 | 660
10 | O=S(=O)(O)c1cc(O)c2c(O)cc(S(=O)(=O)O)cc2c1 [CHROMOTROPATE] | 9.7 | 6.5 | 570
11 | O=C(O)c1cc2ccccc2c(Cc2c(O)c(C(=O)O)cc3ccccc23)c1O [PAMOIC ACID] | 310 | > 1000 | > 1000
12 | Cc1c(C(=O)O)c(O)cc2c1C(=O)c1c(O)c([C@H]3O[C@H](CO)[C@@H](O)[C@H](O)[C@H]3O)c(O)c(O)c1C2=O [CARMINE] | 26 | 15 | > 1000
13 | O=C1OC2(c3ccc(O)cc3Oc3cc(O)ccc32)c2ccccc21 [FLUORESCEIN] | 600 | 850 | > 1000
